Data: ChEMBL document CHEMBL1132128, “Novel halogenated sulfonamides inhibit the growth of multidrug resistant MCF-7/ADR cancer cells” (1999)

What was measured:
Format in all cases: functional
[1] = tested on: MCF7; assay: Cytotoxic activity against human breast tumor-derived MCF-7 cell lines
[2] = tested on: HeLa; assay: Cytotoxic activity against human cervical adenocarcinoma-derived HeLa cell lines
[3] = tested on: NCI/ADR-RES; assay: Cytotoxic activity against MCF-7/ADR cell lines; conditions: Homo sapiens

Structure (SMILES)	GI50 [1] [µM]	GI50 [2] [µM]	GI50 [3] [µM]
COc1ccc(NS(=O)(=O)c2c(F)c(F)cc(F)c2F)cc1	> 50	> 50	> 50
COc1ccc(NS(=O)(=O)c2ccc(F)c(F)c2F)cc1	> 50	> 50	> 50
COc1ccc(NS(=O)(=O)c2c(F)c(F)c(Br)c(F)c2F)cc1	36	17	21
COc1ccc(NS(=O)(=O)c2c(F)c(F)c(F)c(Br)c2F)cc1	0.27	0.22	0.19
COc1ccc(NS(=O)(=O)c2c(F)cc(F)cc2F)cc1	> 50	> 50	> 50
COc1ccc(NS(=O)(=O)c2cc(F)c(F)c(F)c2F)cc1	0.12	0.37	0.4
COc1ccc(NS(=O)(=O)c2c(F)cc(F)c(F)c2F)cc1	4.5	5.8	4.5
COc1ccc(NS(=O)(=O)c2cc(F)c(F)c(F)c2)cc1	2	3.9	3.4
COc1ccc(NS(=O)(=O)c2c(F)c(F)c(F)c(F)c2Br)cc1	0.039	0.16	0.16
COc1ccc(NS(=O)(=O)c2cc(F)c(Cl)c(F)c2F)cc1	44	21	22
COc1ccc(NS(=O)(=O)c2c(F)c(F)c(F)c(F)c2F)cc1	0.029	0.099	0.058
COc1ccc(NS(=O)(=O)c2c(F)c(Cl)c(F)c(Cl)c2F)cc1	0.037	0.096	0.058
CC(=O)O[C@H]1C(=O)[C@@]2(C)[C@H]([C@H](OC(=O)c3ccccc3)[C@]3(O)C[C@H](OC(=O)[C@H](O)[C@@H](NC(=O)c4ccccc4)c4ccccc4)C(C)=C1C3(C)C)[C@]1(OC(C)=O)CO[C@@H]1C[C@@H]2O [PACLITAXEL]	0.0011	0.007	> 50
